Measured values published in US10081632B2, “Substituted tetrahydropyrido[3′,2′:4,5]pyrrolo[1,2-α]pyrazine-2-carboxamides as RSK inhibitors” (Phoenix Molecular Designs, priority 2016, dated 2018).

Assays:
All cell lines [1] = assay: Monolayer growth inhibition, Alamar blue assay, range over all cell lines; assay type: cell-based; conditions: 120 h; range of IC50 over all cell lines of the table; read-out: IC50 Values - Alamar Blue (5 Days), Range, All
Source text: (§1) In all instances a single dose was given on day 1 of the experiment.

T47D cells [2] = assay: Monolayer growth inhibition, Alamar blue assay; assay type: cell-based, Human; conditions: Homo sapiens; T47D (ER/PR), 5 days, single dose on day 1
Source text: as §1

SUM149-PTXR cells [3] = assay: Monolayer growth inhibition, Alamar blue assay; assay type: cell-based, Human; conditions: Homo sapiens; SUM149-PTXR (TNBC, BRCA Mutant), 5 days, single dose on day 1
Source text: as §1

4T1 cells [4] = assay: Monolayer growth inhibition, crystal violet assay; assay type: cell-based; conditions: Mus musculus; 4T1 (TNBC), 5 days, single dose on day 1
Source text: as §1

PC3 cells [5] = assay: Monolayer growth inhibition, crystal violet assay; assay type: cell-based; conditions: Homo sapiens, PC-3; PC3 (Prostate), 5 days, single dose on day 1
Source text: as §1

MDA-MB-435 cells [6] = assay: Monolayer growth inhibition, crystal violet assay; assay type: cell-based; conditions: Homo sapiens; MDA-MB-435 (Melanoma), 5 days, single dose on day 1
Source text: as §1

SUM149-PTXR cells [7] = assay: Monolayer growth inhibition, crystal violet assay; assay type: cell-based; conditions: Homo sapiens; SUM149-PTXR (TNBC, BRCA Mutant), 5 days, single dose on day 1
Source text: as §1

SUM149 cells [8] = assay: Monolayer growth inhibition, crystal violet assay; assay type: cell-based; conditions: Homo sapiens; SUM149 (TNBC, BRCA Mutant), 5 days, single dose on day 1
Source text: as §1

HCC1143 cells [9] = assay: Monolayer growth inhibition, crystal violet assay; assay type: cell-based; conditions: Homo sapiens; HCC1143 (TNBC), 5 days, single dose on day 1
Source text: as §1

MDA-MB-231 cells [10] = assay: Monolayer growth inhibition, crystal violet assay; assay type: cell-based; conditions: Homo sapiens; MDA-MB-231 (TNBC), 5 days, single dose on day 1
Source text: as §1

4T1 cells [11] = assay: Monolayer growth inhibition, Alamar blue assay; assay type: cell-based; conditions: Mus musculus; 4T1 (TNBC), 5 days, single dose on day 1
Source text: as §1

PC3 cells [12] = assay: Monolayer growth inhibition, Alamar blue assay; assay type: cell-based; conditions: Homo sapiens, PC-3; PC3 (Prostate), 5 days, single dose on day 1
Source text: as §1

HCC1937 cells [13] = assay: Monolayer growth inhibition, Alamar blue assay; assay type: cell-based; conditions: Homo sapiens; HCC1937 (TNBC, BRCA Mutant), 5 days, single dose on day 1
Source text: as §1

MDA-MB-435 cells [14] = assay: Monolayer growth inhibition, Alamar blue assay; assay type: cell-based; conditions: Homo sapiens; MDA-MB-435 (Melanoma), 5 days, single dose on day 1
Source text: as §1

SUM149 cells [15] = assay: Monolayer growth inhibition, Alamar blue assay; assay type: cell-based; conditions: Homo sapiens; SUM149 (TNBC, BRCA Mutant), 5 days, single dose on day 1
Source text: as §1

HCC1143 cells [16] = assay: Monolayer growth inhibition, Alamar blue assay; assay type: cell-based; conditions: Homo sapiens; HCC1143 (TNBC), 5 days, single dose on day 1
Source text: as §1

MDA-MB-231 cells [17] = assay: Monolayer growth inhibition, Alamar blue assay; assay type: cell-based; conditions: Homo sapiens; MDA-MB-231 (TNBC), 5 days, single dose on day 1
Source text: as §1

MDA-MB-468 cells [18] = assay: Monolayer growth inhibition, Alamar blue assay; assay type: cell-based; conditions: Homo sapiens; MDA-MB-468 (TNBC), 5 days, single dose on day 1
Source text: as §1

JIMT-1 cells [19] = assay: Monolayer growth inhibition, Alamar blue assay; assay type: cell-based; conditions: Homo sapiens; JIMT-1 (HER2), 5 days, single dose on day 1
Source text: as §1

HCC1937 cells [20] = assay: Monolayer growth inhibition, crystal violet assay; assay type: cell-based; conditions: Homo sapiens; HCC1937 (TNBC, BRCA Mutant), 5 days, single dose on day 1
Source text: (§2) In all instances a single dose was given on day 1 of the experiment. […] Complete (100%) growth suppression was achievable with several of the compounds in multiple different cell lines.

T47D cells [21] = assay: Monolayer growth inhibition, crystal violet assay; assay type: cell-based; conditions: Homo sapiens; T47D (ER/PR), 5 days, single dose on day 1
Source text: as §2

MDA-MB-468 cells [22] = assay: Monolayer growth inhibition, crystal violet assay; assay type: cell-based; conditions: Homo sapiens; MDA-MB-468 (TNBC), 5 days, single dose on day 1
Source text: as §2

JIMT-1 cells [23] = assay: Monolayer growth inhibition, crystal violet assay; assay type: cell-based; conditions: Homo sapiens; JIMT-1 (HER2), 5 days, single dose on day 1
Source text: as §2

All cell lines [24] = assay: Monolayer growth inhibition, crystal violet assay, range over all cell lines; assay type: cell-based; conditions: 120 h; range of IC50 over all cell lines of the table; read-out: IC50 Values - Crystal Violet (5 Days), Range, All
Source text: as §2

[25] = Solubility assessment, 20 mg/ml solution; assay type: physicochemical
Method: Solubility is an important property for therapeutic drug candidates. Poor solubility can lead to low bioavailability resulting in suboptimal drug delivery. It can also prevent the evaluation of test agents in animals because the concentration(s) needed to achieve the desired effect cannot be achieved to poor solubility. For solubility assessments, small molecules targeting RSK were compared. For these assessments, 100 mM solutions of the compounds dissolved in DMSO were diluted in DMEM growth media (Life Technologies) supplemented with fetal bovine serum (FBS, Life Technologies) and 100 units/ml penicillin and 100 units/ml streptomycin (Life Technologies) to make 20 mg/ml solutions. Once diluted, the solutions were vortexed and examined for the formation of precipitates. […] For Compound 26, a 100 mM solution of the compound dissolved in DMSO was diluted in phosphate buffered saline (Life Technologies) to make a 20 mg/ml solution. The stock of […] was chosen because this is the upper end of what would be required to dose mice for a range of studies including MTD, PK, PD and efficacy. The pH of this solution was determined to be 2, as previously described. […] At high concentrations some RSK inhibitors were highly soluble while others were not. Compound 0 is (R)—N-(1-benzyl-1H-pyrazol-4-yl)-9-methyl-6-oxo-6,7,8,9-tetrahydropyrido[3′,2′:4,5]pyrrolo[1,2-a]pyrazine-2-carboxamide. Compound 0 was not soluble, whereas Compounds 18, 20, 21, 25 and 26 were soluble under the same conditions (Table 5).

4T1 cells [26] = assay: Soft agar growth inhibition assay; assay type: cell-based; conditions: Mus musculus; 4T1 (TNBC), 14-22 days; read-out: IC50 Values - Soft Agar (14-22 Days)
Method: Two agar (Alfa Aesar) solutions (0.8% w/v and 0.4% w/v) were prepared in ultrapure water. The 0.8% agar solution was mixed in equal volumes with 2× media previously prepared from powder (Life Technologies) following the manufacturer's instructions and filter sterilized. The 0.8% agar and media solution was added to 24 well plates (Mandel Scientific) at 500 μl per well. The plates were placed in a humidified incubator at 37° C. with 5% CO2. Next, the 0.4% agar solution was mixed in equal volumes with 2× media. Breast cancer cell lines were added to this solution to achieve a final concentration of 2×10^4 cells per well and […] was added to each well on top of the bottom agar and media layer. […] The plates were returned to the incubator for 10-32 days, with a re-dosing of compounds or DMSO every 7 days. After 10-32 days, colonies were counted in 3 different fields of view for each well.
Representative compounds described herein were tested in the soft agar growth inhibition assay against the 4T1 breast cancer cell line.

MDA-MB-231 cells [27] = assay: Soft agar growth inhibition assay; assay type: cell-based; conditions: Homo sapiens; MDA-MB-231 (TNBC), 14-22 days; read-out: IC50 Values - Soft Agar (14-22 Days)
MDA-MB-468 cells [28] = assay: Soft agar growth inhibition assay; assay type: cell-based, Human; conditions: Homo sapiens; MDA-MB-468 (TNBC), 14-22 days

IC50 (T47D cells [2]) [µM] | IC50 (4T1 cells [4]) [µM] | IC50 (PC3 cells [5]) [µM] | IC50 (MDA-MB-435 cells [6]) [µM] | IC50 (HCC1143 cells [9]) [µM] | IC50 (MDA-MB-231 cells [10]) [µM] | IC50 (4T1 cells [11]) [µM] | IC50 (PC3 cells [12]) [µM] | IC50 (HCC1937 cells [13]) [µM] | IC50 (MDA-MB-435 cells [14]) [µM] | IC50 (HCC1143 cells [16]) [µM] | IC50 (MDA-MB-231 cells [17]) [µM] | IC50 (MDA-MB-468 cells [18]) [µM] | IC50 (HCC1937 cells [20]) [µM] | Compound | IC50 (All cell lines [1]) [µM] | IC50 (SUM149-PTXR cells [3]) [µM] | IC50 (SUM149-PTXR cells [7]) [µM] | IC50 (SUM149 cells [8]) [µM] | IC50 (SUM149 cells [15]) [µM] | IC50 (JIMT-1 cells [19]) [µM] | further results
13.5 ± 4.6 | 15.8 ± 4.8 | 14.9 ± 6.6 | 10.3 ± 3.5 | 13.8 ± 4.3 | 17.2 ± 1.9 | 20.6 ± 2.5 | 17.1 ± 8.7 | 16.6 ± 11.5 | 10.5 ± 2.2 | 11.5 ± 3.6 | 25.6 ± 1.5 | 14.7 ± 4.1 | 19.9 ± 8.7 | C[C@@H]1CNC(=O)c2cc3ccc(NC(=O)c4cnn(Cc5cccc(N)c5)c4)nc3n21 [Compound 19, (R)-1-(3-aminobenzyl)-N-(9-methyl-6-oxo-6,7,8,9-tetrahydropyrido[3′,2′:4,5]pyrrolo[1,2-a]pyrazin-2-yl)-1H-pyrazole-4-carboxamide] | 10.5 to 37.3 | 14.1 ± 4.3 | 13 ± 1.3 | 11.1 ± 3.9 | 15.8 ± 6.4 | 37.3 ± 9 | IC50 (T47D cells [21]): 7.7 ± 1.5 µM; IC50 (MDA-MB-468 cells [22]): 7.4 ± 1 µM; IC50 (JIMT-1 cells [23]): 34 ± 12.8 µM; IC50 (All cell lines [24]): 7.4 to 34 µM
8 ± 3.8 | 1.1 ± 0.7 | 4.3 ± 0.5 | 4.8 ± 2.1 | 9.5 ± 5.6 | 9.1 ± 0.8 | 1.2 ± 0.3 | 7.1 ± 0.9 | 8.3 ± 2.4 | 8.3 ± 5.3 | 5.4 ± 3.7 | 14.7 ± 4.3 | 6.5 ± 4.5 | 11 ± 1 | C[C@@H]1CNC(=O)c2cc3ccc(C(=O)Nc4ccccc4C(N)=O)nc3n21 [Compound 21, (R)—N-(2-carbamoylphenyl)-9-methyl-6-oxo-6,7,8,9-tetrahydropyrido[3′,2′:4,5]pyrrolo[1,2-a]pyrazine-2-carboxamide] | 1.2 to 14.7 | 1.5 ± 0.8 | 2 ± 0.2 | 2.4 ± 1.3 | 2.7 ± 1.3 | 12.6 ± 6.4 | Solubility, 20 mg/ml Solution ([25]; 100 mM in DMSO diluted in DMEM growth media to 20 mg/ml): Soluble; pH of 20 mg/ml solution ([25]; DMSO stock diluted in DMEM, pH test strips): 9; IC50 (4T1 cells [26]): 3.1 ± 0.6 µM; IC50 (MDA-MB-231 cells [27]): 2 ± 1 µM; IC50 (T47D cells [21]): 3.7 ± 2.7 µM; IC50 (MDA-MB-468 cells [22]): 4.6 ± 1.4 µM; IC50 (JIMT-1 cells [23]): 11.3 ± 4.1 µM; IC50 (All cell lines [24]): 1.1 to 11.3 µM; IC50 (MDA-MB-468 cells [28]): 0.4 ± 0.1 µM
